Data on 22 molecules can be found in article PMC6167002 (Journal of Medicinal Chemistry, 2018).

Where only a bound is given, the exact number is not on record here.

As a reminder, the IC50 is the concentration at which inhibition is half-maximal. The low end stands for greater potency, the high end for weaker potency. For orientation: EC50 means the concentration giving half of the maximal effect. Read a low EC50 as an effect from little substance.

T1 sequence (Q388H8 entry or part of it): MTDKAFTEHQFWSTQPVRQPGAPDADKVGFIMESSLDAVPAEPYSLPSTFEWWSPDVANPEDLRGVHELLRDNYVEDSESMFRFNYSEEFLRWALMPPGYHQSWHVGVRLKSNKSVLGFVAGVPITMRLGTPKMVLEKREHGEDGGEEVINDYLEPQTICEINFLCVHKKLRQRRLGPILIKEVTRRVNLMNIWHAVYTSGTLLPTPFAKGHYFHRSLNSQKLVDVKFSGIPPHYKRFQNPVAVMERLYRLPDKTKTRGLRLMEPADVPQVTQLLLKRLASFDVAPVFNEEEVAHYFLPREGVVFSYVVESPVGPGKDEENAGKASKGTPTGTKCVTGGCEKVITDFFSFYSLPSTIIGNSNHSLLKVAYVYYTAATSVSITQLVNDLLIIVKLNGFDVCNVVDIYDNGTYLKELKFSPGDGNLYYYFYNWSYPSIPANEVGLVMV

The first assay concerns the target T1, TbNMT (Trypanosoma brucei N-myristoyltransferase) (Trypanosoma brucei, UniProt Q388H8).
T1 construct: gene Tb10.61.2550
Nature of the assay: scintillation proximity assay with [3H]myristoyl-CoA and biotinylated CAP5.[…] peptide.
Conditions: not given
The class given is biochemical. Background: SPA uses beads or plates that emit light when radiolabelled molecules are held near them.
`CC(C)Cc1ccc2ncccc2c1NS(=O)(=O)c1ccc(CCCCC2CCN(C)CC2)cc1` [compound 32, N-(6-Isobutylquinolin-5-yl)-4-(4-(1-methylpiperidin-4-yl)butyl)benzenesulfonamide] registered an IC50 of less than 5 nM. As to `CC(C)Cc1ccc2nn(C)cc2c1NS(=O)(=O)c1ccc(CCCO[C@@H]2C[C@H]3CC[C@@H](C2)N3C)cc1` [compound 60], the IC50 was 5 nM.

The molecule `CC(C)Cc1ccc2nn(C)cc2c1NS(=O)(=O)c1ccc(CCCCC2CCN(C)CC2)cc1` [compound 54, N-(5-Isobutyl-2-methyl-2H-indazol-4-yl)-4-(4-(1-methylpiperidin-4-yl)butyl)benzenesulfonamide] came in with an IC50 of less than 5 nM.

The next assay has as its system T2, T. brucei.
T2 construct: s427
Kind of assay: microbe, parasite or virus in culture. Also noted: species or system T. b. brucei s427 bloodstream form; bloodstream T. b. brucei viability, resazurin fluorescence. The note with it: Trypanosoma brucei, 73 h. How it is done: T.brucei cell viability assays were carried out as described previously.[6] In brief, bloodstream T. b. brucei s427 was cultured at 37 °C in modified HMI9 medium (56 μM 1-thioglycerol was substituted for 200 μM 2-mercaptoethanol) and quantified using a hemocytometer. Cell culture plates were stamped with 1 μL of an appropriate concentration of test compound in DMSO followed by the addition of 200 μL of trypanosome culture (10^4 cells ml^–1) to each well except for one column that received media only. Culture plates of T. brucei cells were incubated at 37 °C in an atmosphere of 5% CO2 for 69 h before the addition of 20 μL of resazurin (final concentration, 50 μM). After a further 4 h incubation, fluorescence was measured (excitation 528 nm; emission 590 nm) using a BioTek flx800 plate reader.
In turn, `CC(C)Cc1ccc2ncccc2c1NS(=O)(=O)c1ccc(CCCC2CCNCC2)cc1` [S1, N-(6-isobutylquinolin-5-yl)-4-(3-(piperidin-4-yl)propyl)benzenesulfonamide] had an EC50 of 25 nM. Same read-out and setting: under `CC(C)Cc1ccc2ncccc2c1NS(=O)(=O)c1ccc(CCCOC[C@H]2COCCN2)cc1` [S5, (S)-N-(6-isobutylquinolin-5-yl)-4-(3-(morpholin-3-ylmethoxy)propyl)benzenesulfonamide] stands 710 nM; under `CC(C)Cc1ccc2ncccc2c1NS(=O)(=O)c1ccc(CCCCN2CCCN(C)CC2)cc1` [compound 37, N-(6-isobutylquinolin-5-yl)-4-(4-(4-methyl-1,4-diazepan-1-yl)butyl)benzenesulfonamide], 59 nM. `CC(C)Cc1ccc2ncccc2c1NS(=O)(=O)c1ccc(CCCOC[C@H]2COCCN2C)cc1` [S6, (S)-N-(6-isobutylquinolin-5-yl)-4-(3-((4-methylmorpholin-3-yl)methoxy)propyl)benzenesulfonamide] displayed an EC50 of 250 nM. Still for that read-out and setting: for `CC(C)Cc1ccc2ncccc2c1NS(=O)(=O)c1ccc(CCCCC2CCN(C)CC2)cc1` [compound 32, N-(6-Isobutylquinolin-5-yl)-4-(4-(1-methylpiperidin-4-yl)butyl)benzenesulfonamide] the value was 19 nM.

For `CC(C)Cc1ccc2ncccc2c1NS(=O)(=O)c1ccc(CCCC2CCN(C)CC2)cc1` [compound 31, N-(6-isobutylquinolin-5-yl)-4-(3-(1-methylpiperidin-4-yl)propyl)benzenesulfonamide], the EC50 is 9 nM. Still for that read-out and setting: under `CC(C)Cc1ccc2ncccc2c1NS(=O)(=O)c1ccc(CCCOC[C@@H]2CNCCO2)cc1` [compound 44, (S)-N-(6-isobutylquinolin-5-yl)-4-(3-(morpholin-2-ylmethoxy)propyl)benzenesulfonamide] stands 39 nM; under `CC(C)Cc1ccc2ncccc2c1NS(=O)(=O)c1ccc(CCCO[C@@H]2CCCN(C)C2)cc1` [compound 43, (R)-N-(6-isobutylquinolin-5-yl)-4-(3-((1-methylpiperidin-3-yl)oxy)propyl)benzenesulfonamide], 39 nM; under `CC(C)Cc1ccc2ncccc2c1NS(=O)(=O)c1ccc(CCCN2CCN3CCC[C@H]3C2)cc1` [S2, (S)-4-(3-(hexahydropyrrolo[1,2-a]pyrazin-2(1H)-yl)propyl)-N-(6-isobutylquinolin-5-yl)benzenesulfonamide], 150 nM.

As for `CC(C)Cc1ccc2ncccc2c1NS(=O)(=O)c1ccc(CCCO[C@H]2C[C@H]3CC[C@@H](C2)N3C)cc1` [compound 42, 42], the EC50 is 9 nM. With `CC(C)Cc1ccc2ncccc2c1NS(=O)(=O)c1ccc(CCCN2CCN(C)CC2)cc1` [compound 38, N-(6-isobutylquinolin-5-yl)-4-(3-(4-methylpiperazin-1-yl)propyl)benzenesulfonamide], the EC50 is 84 nM. `CC(C)Cc1ccc2ncccc2c1NS(=O)(=O)c1ccc(CCCCN2CCNCC2)cc1` [compound 39, N-(6-isobutylquinolin-5-yl)-4-(4-(piperazin-1-yl)butyl)benzenesulfonamide] showed an EC50 of 180 nM.

As for `CC(C)Cc1ccc2ncccc2c1NS(=O)(=O)c1ccc(CCCO[C@@H]2C[C@H]3CC[C@@H](C2)N3C)cc1` [compound 41, 41], the EC50 stood at 91 nM. The molecule `CC(C)Cc1ccc2ncccc2c1NS(=O)(=O)c1ccc(CCCOC[C@@H]2CCCCN2)cc1` [S3, (S)-N-(6-isobutylquinolin-5-yl)-4-(3-(piperidin-2-ylmethoxy)propyl)benzenesulfonamide] came in with an EC50 of 850 nM. Same read-out and setting: for `CC(C)Cc1ccc2ncccc2c1NS(=O)(=O)c1ccc(CCCOC[C@@H]2CCCN(C)C2)cc1` [S4, (R)-N-(6-isobutylquinolin-5-yl)-4-(3-((1-methylpiperidin-3-yl)methoxy)propyl)benzenesulfonamide] the value was 10 nM. Still for that read-out and setting: under `CC(C)Cc1ccc2ncccc2c1NS(=O)(=O)c1ccc(CCCCC2CCNCC2)cc1` [compound 33, N-(6-isobutylquinolin-5-yl)-4-(4-(piperidin-4-yl)butyl)benzenesulfonamide] stands 21 nM. Molecule `CC(C)Cc1ccc2ncccc2c1NS(=O)(=O)c1ccc(CCCCN2C[C@@H](C)N[C@@H](C)C2)cc1` [compound 40, 4-(4-((3S,5R)-3,5-dimethylpiperazin-1-yl)butyl)-N-(6-isobutylquinolin-5-yl)benzenesulfonamide] showed a concentration giving a half-maximal response (EC50) of 350 nM. In turn, `CC(C)Cc1ccc2ncccc2c1NS(=O)(=O)c1ccc(CCCN2CCCN(C)CC2)cc1` [compound 36, N-(6-isobutylquinolin-5-yl)-4-(3-(4-methyl-1,4-diazepan-1-yl)propyl)benzenesulfonamide] came in with an EC50 of 18 nM. Regarding `CC(C)Cc1ccc2ncccc2c1NS(=O)(=O)c1ccc(CCCCN2CCN3CCC[C@@H]3C2)cc1` [compound 35, (R)-4-(4-(hexahydropyrrolo[1,2-a]pyrazin-2(1H)-yl)butyl)-N-(6-isobutylquinolin-5-yl)benzenesulfonamide], the EC50 amounted to 250 nM. The same measure, in the same setting: for `CC(C)Cc1ccc2ncccc2c1NS(=O)(=O)c1ccc(CCCN2CCN3CCC[C@@H]3C2)cc1` [compound 34, (R)-4-(3-(hexahydropyrrolo[1,2-a]pyrazin-2(1H)-yl)propyl)-N-(6-isobutylquinolin-5-yl)benzenesulfonamide] the value was 40 nM.
